Reference: patent US10682352B2, “Compound having mutant IDH inhibitory activity, preparation method and use thereof” (SHANGHAI HAIHE PHARMACEUTICAL CO., LTD., priority 2016, dated 2020)

What follows are compounds tested against IDH1 R132H (Homo sapiens (Human), UniProt O75874, R132H) (assay: Effect on the enzyme activity of IDH1 at the molecular level (NADPH consumption, diaphorase/resazurin)). Settings: α-KG 1 mM, NADPH 4 μM, 60 min room temperature.
Format: biochemical
Procedure: The enzyme used in the experiment was purchased from cayman Co.
The substrates α-KG, NADPH and Diaphorase were purchased from Sigma; Resazurin was purchased from J&K; and the remaining reagents were purchased from Sinopharm Chemical Reagent Co., Ltd.
Compound preparation: Compound 12000 g was centrifuged for 5 min, DMSO was added to prepare 10 mM, which was vortexed, then ultrasonic treatment for 10 minutes, and stored at −40° C. The stock solution was diluted firstly with DMSO to a 10 μM solution when tested and then gradient-diluted for 3 times to a different test concentration.
Test method: The enzyme activity of IDH1 to convert α-KG to 2HG was measured by the consumption of NADPH. After the enzymatic reaction was completed, a catalytic excess of diaphorase and reazurin were added, and the resulting fluorescent signal could reflect the amount of remaining NADPH. […] IC50 values were calculated using GraphPad Prism software.

Sequence of IDH1 R132H (O75874 whole entry R132H): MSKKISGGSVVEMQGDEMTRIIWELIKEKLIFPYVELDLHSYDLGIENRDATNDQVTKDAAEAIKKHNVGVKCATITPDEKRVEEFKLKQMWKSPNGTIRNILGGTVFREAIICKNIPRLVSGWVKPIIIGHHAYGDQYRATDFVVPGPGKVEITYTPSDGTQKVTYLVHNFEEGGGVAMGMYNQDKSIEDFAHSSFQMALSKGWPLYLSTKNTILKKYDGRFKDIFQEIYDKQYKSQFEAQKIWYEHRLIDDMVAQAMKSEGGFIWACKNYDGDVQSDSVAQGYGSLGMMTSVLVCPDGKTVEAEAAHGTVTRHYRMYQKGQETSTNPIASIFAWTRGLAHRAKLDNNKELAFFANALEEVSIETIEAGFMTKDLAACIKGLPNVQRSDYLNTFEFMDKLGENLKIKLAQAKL

Row | Structure (SMILES) | IC50 [nM]
1 | CC(C)[C@H]1CN(C)C(=O)N1c1ccnc(NC2(c3cn(C4CCC(F)(F)CC4)cn3)CC2)n1 [Compound 36, (S)-3-(2-((1-(1-(4,4-difluorocyclohexyl)-1H-imidazol-4-yl)cyclopropyl)amino)pyrimidin-4-yl)-4-isopropyl-1-methylimidazolidine-2-one] | 100 to 1000
2 | CC(C)[C@H]1CN(C)C(=O)N1c1ccnc(NC2(c3cn(-c4cccc(C5CC5)c4)cn3)CCC2)n1 [Compound 71, (S)-3-(2-((1-(1-(3-cyclopropylphenyl)-1H-imidazol-4-yl)cyclobutyl)amino)pyrimidin-4-yl)-4-isopropyl-1-methylimidazolidine-2-one] | 100 to 1000
3 | CC(C)[C@H]1CN(C)C(=O)N1c1ccnc(N[C@@H](C)c2cn(C3CCC(F)(F)CC3)cn2)n1 [Compound 75, (S)-3-(2-(((S)-1-(1-(4,4-difluorocyclohexyl)-1H-imidazol-4-yl)ethyl)amino)pyrimidin-4-yl)-4-isopropyl-1-methylimidazolidine-2-one] | 100 to 1000
4 | Cc1ccc(-n2cnc(C3(Nc4nccc(N5C(=O)NC[C@@H]5C(C)C)n4)CC3)c2)cn1 [Compound 29, (S)-5-isopropyl-1-(2-((1-(1-(6-methylpyridin-3-yl)-1H-imidazol-4-yl)cyclopropyl)amino)pyrimidine-4-yl)-2-one] | 100 to 1000
5 | CC(C)[C@H]1CN(C)C(=O)N1c1ccnc(N[C@@H](C)c2cn(C3CCC(C)(C)CC3)cn2)n1 [Compound 56, (S)-3-(2-(((S)-1-(1-(4,4-dimethylcyclohexyl)-1H-imidazol-4-yl)ethyl)amino)pyrimidin-4-yl)-4-isopropyl-1-methylimidazolidine-2-one] | 100 to 1000
6 | CCN1C[C@H](C(C)C)N(c2ccnc(N[C@@H](C)c3cn(-c4ccc(Cl)cc4)cn3)n2)C1=O [Compound 74, (S)-3-(2-(((S)-1-(1-(4-chlorophenyl) 1H-imidazol-4-yl)ethyl)amino)pyrimidin-4-yl)-1-ethyl-4-isopropylimidazolidine-2-one] | 100 to 1000
7 | CC(C)[C@H]1CN(C)C(=O)N1c1ccnc(N[C@@H](C)c2cn(-c3cc(Cl)cc(Cl)c3)cn2)n1 [Compound 60, (S)-3-(2-(((S)-1-(1-(3,5-dichlorophenyl)-1hydro-imidazol-4-yl)ethyl)amino)pyrimidin-4-yl)-4-isopropyl-1-methylimidazolidine-2-one] | 100 to 1000
8 | [2H]C1([2H])[C@H](C(C)C)N(c2ccnc(N[C@@H](C)c3ccc(-c4cccc(Cl)c4)cn3)n2)C(=O)N1C [Compound 2, (S)-3-(2-(((S)-1-(5-(3-chlorophenyl)pyridin-2-yl)ethyl)amino)pyrimidin-4-yl)-4-isopropyl-1-methyl-imidazolidine-2-one-5,5-dideutero] | 100 to 1000
9 | CC(C)[C@H]1CN(C)C(=O)N1c1ccnc(NC(C)(C)c2cn(-c3ccc(Cl)cc3)cn2)n1 [Compound 72, (S)-3-(2-((2-(1-(4-chlorophenyl)-1H-imidazol-4-yl)prop-2-yl)amino)pyrimidin-4-yl)-4-isopropyl-1-methylimidazolidine-2-one] | 100 to 1000
10 | Cc1cc(N2C(=O)N(C)C[C@@H]2C2CC2)nc(N[C@@H](C)c2cn(-c3ccc(Cl)cc3)cn2)n1 [Compound 79, (S)-3-(2-(((S)-1-(1-(4-chlorophenyl)-1H-imidazol-4-yl)ethyl)amino)-6-methylpyrimidin-4-yl) cyclopropyl-1-methylimidazolidine-2-one] | 100 to 1000
11 | CC(C)CCn1cnc([C@H](C)Nc2nccc(N3C(=O)N(C)C[C@@H]3C(C)C)n2)c1 [Compound 66, (S)-3-(2-(((S)-1-(1-isopentyl-1H-imidazol-4-yl)yl)amino)pyrimidin-4-yl)-4-isopropyl-1-methylimidazolidine-2-one] | 100 to 1000
12 | [2H]C1([2H])[C@H](C(C)C)N(c2ccnc(N[C@@H](C)c3cc(C)c(-c4ccnc(C(F)(F)F)c4)cn3)n2)C(=O)N1C [Compound 109] | 100 to 1000
13 | C[C@H](Nc1nccc(N2C(=O)NCC23CCCC3)n1)c1cn(-c2ccc(Cl)cc2)cn1 [Compound 11, (S)-1-(2-((1-(1-(4-chlorophenyl)-1H-imidazol-4-yl)ethyl)amino)pyrimidin-4-yl)-1,3-diazaspiro[4.4]-2-one] | 100 to 1000
14 | CC(C)[C@@H]1N(c2ccnc(N[C@@H](C)c3cn(-c4ccc(Cl)cc4)cn3)n2)C(=O)NC12CC2 [Compound 99, (S)-6-(2-(((S)-1-(1-(4-chlorophenyl)-1H-imidazol-4-yl)ethyl)amino)pyrimidin-4-yl)-7-isopropyl-4,6-diazaspiro[2.4] hept-5-one] | 100 to 1000
15 | CC(C)[C@H]1CN(C2CC2)C(=O)N1c1ccnc(N[C@@H](C)c2cn(-c3ccc(Cl)cc3)cn2)n1 [Compound 73, (S)-3-(2-(((S)-1-(1-(4-chlorophenyl)-1H-imidazol-4-yl)ethyl)amino)pyrimidin-4-yl)-4-isopropyl-1-cyclopropylimidazolidine-2-one] | 100 to 1000
16 | O=C1NC[C@H](c2ccccc2)N1c1ccnc(NC2(c3cn(-c4ccc(Cl)cc4)cn3)CC2)n1 [Compound 13, (S)-1-(2-((1-(1-(4-chlorophenyl)-1H-imidazol-4-yl)cyclopropyl)amino)pyrimidin-4-yl)-5-phenylimidazolidine-2-one] | 100 to 1000
17 | CC(C)[C@H]1CN(C)C(=O)N1c1ccnc(NC2(c3cn(-c4cc(Cl)cc(C5CC5)c4)cn3)CC2)n1 [Compound 48] | < 100
18 | CC(C)[C@H]1CN(C)C(=O)N1c1ccnc(N[C@@H](C)c2ncn(-c3ccc(Cl)cc3)n2)n1 [Compound 70] | 100 to 1000

Row | Structure (SMILES) | IC50 [nM]
19 | CC(C)[C@H]1CN(C)C(=O)N1c1ccnc(NC2(c3ccc(-c4ccnc(C(F)(F)F)c4)cn3)CC2)n1 [Compound 113] | 100 to 1000
20 | CC(C)[C@H]1CN(C)C(=O)N1c1ccnc(NC2(c3ncn(-c4cccc(C5CC5)c4)n3)CC2)n1 [Compound 64] | 100 to 1000
21 | C[C@H](Nc1nccc(N2C(=O)NCC2(C)C)n1)c1cn(-c2ccc(Cl)cc2)cn1 [Compound 12, (S)-1-(2-((1-(1-(4-chlorophenyl)-1H-imidazol-4-yl)ethyl)amino)pyrimidin-4-y 1)-5,5-dimethyl imidazolidine-2-one] | 100 to 1000
22 | C[C@H](Nc1nccc(N2C(=O)NC[C@@H]2C2CC2)n1)c1cn(-c2ccc(Cl)cc2)cn1 [Compound 14] | 100 to 1000
23 | CC(C)[C@H]1CN(C)C(=O)N1c1ccnc(NC2(c3cn(-c4cc(F)cc(C5CC5)c4)cn3)CC2)n1 [Compound 53] | < 100
24 | CC(C)[C@H]1CNC(=O)N1c1ccnc(NC2(c3ccc(-c4ccc(Cl)cc4)cc3)CC2)n1 [Compound 16, (S)-1-(2-((1-(4′-chloro-[1,1′-biphenyl]-4-yl)cyclopropyl)amino)pyrimidin-4-yl)-5-isopropyl imidazolidine-2-one] | 100 to 1000
25 | CC(C)[C@H]1CN(C)C(=O)N1c1ccnc(N[C@@H](C)c2cn(-c3cccc(C(F)(F)F)c3)cn2)n1 [Compound 59] | 100 to 1000
26 | CC(C)[C@H]1CNC(=O)N1c1ccnc(NC2(c3cn(-c4ccc(Cl)cc4)cn3)CC2)n1 [Compound 8, (S)-1-(2-((1-(1-(4-chlorophenyl)-1H-imidazol-4-yl)cyclopropyl)amino)pyrimidin-4-yl)-5-isopropyl imidazolidine-2-one] | 100 to 1000
27 | CC(C)[C@H]1CN(C)C(=O)N1c1ccnc(NC2(c3cn(-c4ccccc4Cl)cn3)CC2)n1 [Compound 51, (S)-3-(2-((1-(1-(2-chlorophenyl)-1H-imidazol-4-yl)cyclopropyl)amino)pyrimidin-4-yl)-4-isopropyl-1-methylimidazolidine-2-one] | 100 to 1000
28 | CC(C)[C@H]1CN(C)C(=O)N1c1ccnc(NC2(c3cn(-c4ccc(C5CC5)cc4)cn3)CC2)n1 [Compound 39, (S)-3-(2-((1-(1-(4-cyclopropylphenyl)-1H-imidazol-4-yl)cyclopropyl)amino)pyrimidin-4-yl)-4-isopropyl-1-methylimidazolidine-2-one] | 100 to 1000
29 | CC(C)[C@H]1CN(C)C(=O)N1c1ccnc(NC2(c3cn(-c4cccc(C5CC5)c4)c(Br)n3)CC2)n1 [Compound 67] | 100 to 1000
30 | CC(Nc1nccc(N2C(=O)NC[C@@H]2C(C)C)n1)c1ccc(Oc2ccccc2)cc1 (stereo partly drawn) [Compound 9, (5S)-5-isopropyl-1-(2-((1-(4-phenoxyphenyl)ethyl)amino)pyrimidin-4-yl)imidazolidine-2-one] | 100 to 1000
31 | CC(C)[C@H]1CN(C)C(=O)N1c1ccnc(NC2(c3cn(CC4CCCC4)cn3)CC2)n1 [Compound 40, (S)-3-(2-((1-(1-(cyclopentylmethyl)-1H-imidazol-4-yl)cyclopropyl)amino)pyrimidin-4-yl)-4-isopropyl-1-methylimidazolidine-2-one] | 100 to 1000
32 | CCN1C[C@H](C(C)C)N(c2ccnc(NC3(c4cn(-c5cccc(Cl)c5)cn4)CC3)n2)C1=O [Compound 41] | 100 to 1000
33 | C[C@H](Nc1nccc(N2C(=O)N(C)C[C@@H]2[C@@H](C)O)n1)c1cn(-c2ccc(Cl)cc2)cn1 [Compound 81] | 100 to 1000
34 | CC(C)[C@H]1CN(C)C(=O)N1c1ccnc(NC2(c3ncn(-c4cccc(C5CC5)c4)c3C#N)CC2)n1 [Compound 69, (S)-1-(3-cyclopropylphenyl)-4-(1-((4-(5-isopropyl-3-methyl-2-oxoimidazolidine-1-yl)pyrimidine-2-yl)amino)cyclopropyl)-1H-imidazole-5-carbonitrile] | 100 to 1000
35 | CC(C)[C@H]1CN(C)C(=O)N1c1ccnc(NC2(c3cn(-c4ccc(Cl)cc4)cn3)CC2)n1 [Compound 19, (S)-3-(2-((1-(1-(4-chlorophenyl)-1H-imidazol-4-yl)cyclopropyl)amino)pyrimidin-4-yl)-4-isopropyl-1-methylimidazolidine-2-one] | 100 to 1000
